The source of these data is ChEMBL document CHEMBL2396603, “Heterocyclic modification of a novel bicyclo[3.1.0]hexane NPY1 receptor antagonist” (Bioorg Med Chem Lett, 2013).

Series [1] has as its target T1, Neuropeptide Y receptor type 1 (Homo sapiens, UniProt P25929).
T1 sequence (P25929 whole entry): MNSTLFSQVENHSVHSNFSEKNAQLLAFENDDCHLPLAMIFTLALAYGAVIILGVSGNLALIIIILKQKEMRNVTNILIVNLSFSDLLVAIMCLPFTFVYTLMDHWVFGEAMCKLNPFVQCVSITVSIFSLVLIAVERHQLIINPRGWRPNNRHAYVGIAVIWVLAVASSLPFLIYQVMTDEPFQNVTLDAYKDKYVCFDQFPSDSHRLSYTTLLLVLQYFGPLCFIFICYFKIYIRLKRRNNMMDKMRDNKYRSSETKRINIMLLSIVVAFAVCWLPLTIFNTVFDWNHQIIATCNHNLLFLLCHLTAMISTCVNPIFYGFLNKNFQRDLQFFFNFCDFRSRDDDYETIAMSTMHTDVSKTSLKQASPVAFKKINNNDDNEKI
As to the kind of experiment: Displacement of [125I]PYY from NPY1 receptor in human SK-N-MC cells after 1 hr by microbeta scintillation counting analysis. Format: cell-based. A general note: In a radioligand displacement assay an active substance lowers the binding of a labelled ligand.

Series [2] in a line: Drug uptake in rat brain at 10 mg/kg, ip after 15 mins. Format: ADME, organism-based. The following applies: read-out: Drug uptake. Details: dose 10 mg/kg, route intraperitoneal.
The nature of series [3]: Aqueous solubility of the compound in 40% aqueous trappsol. Type of series: physicochemical.
Series [4] can be described thus: Bioavailability in rat at 10 mg/kg, ip. Format: ADME, organism-based. Conditions: in vivo.
Series [5] is described as follows: Oral bioavailability in rat at 20 mg/kg. Format: ADME, organism-based. The following applies: in vivo.
For series [6], the system named is Rattus norvegicus. As to the kind of experiment: Antiobesity activity in Sprague-Dawley rat spontaneous nocturnal feeding model assessed as reduction in food intake at 35.6 to 60 mg/kg, po administered 2.5 hrs before onset of darkness measured during first hr. Format: functional, organism-based.
The subject of series [7] is Rattus norvegicus. As to the kind of experiment: Antiobesity activity in Sprague-Dawley rat spontaneous nocturnal feeding model assessed as reduction in food intake at 10 to 30 mg/kg, ip administered 1 hr before onset of darkness measured during first hour and first 3 hrs of darkness. Type of series: functional, organism-based.

Structures are written as SMILES. ≈ marks a conversion by molar mass, not a printed value. Calls of active or inactive are those of the source. The rule behind the calls is not given here. Where only a bound is given, the exact number is not on record here.

By IC50 is commonly meant the concentration at which inhibition is half-maximal. Lower therefore signals greater potency. In the case of `CCOc1cccc(C2(N3CCNCC3)C3CC(C)CC32)c1` (stereo unspecified), the IC50 in series [1] was > 10 µM.
On the same count and under the same terms, then `CCOc1cccc(C2(N3CCN(Cc4ccccc4)CC3)C3CC(C)CC32)c1` (stereo unspecified), with > 10 µM; and `CCOc1cccc(C2(N3CCN(c4cnccn4)CC3)C3CC(C)CC32)c1` (stereo unspecified), with 0.265 µM.
In general, solubility refers to how much of the substance goes into solution per volume. Usually bioavailability stands for the share of a dose that reaches the circulation, judged against a reference dose that is usually intravenous. High values mean much systemic uptake, low ones little systemic uptake. As to `CCOc1cccc(C2(N3CCN(c4ccccn4)CC3)C3CC(C)CC32)c1` (stereo unspecified), the concentration at 0.25 h in series [2] is > 100 nM. Also, the solubility in series [3] was > 50000 µg/mL. The figures for the bioavailability in series [4] and in series [5] were 40% and 53%, respectively. This molecule yielded an IC50 in series [1] of 0.042 µM. Moreover, the outcome in series [6] and in series [7] was Active.
In series [1], `CCOc1cccc(C2(N3CCN(c4cccnn4)CC3)C3CC(C)CC32)c1` (stereo unspecified) came in with an IC50 of 4.38 µM.
Still for that read-out and setting: in the case of `CCOc1cccc(C2(N3CCN(c4cncnc4)CC3)C3CC(C)CC32)c1` (stereo unspecified) it was 5.03 µM; in that of `CCOc1cccc(C2(N3CCN(c4cccc(OC)n4)CC3)C3CC(C)CC32)c1` (stereo unspecified), > 10 µM; in that of `CCOc1cccc(C2(N3CCN(c4ccccc4)CC3)C3CC(C)CC32)c1` (stereo unspecified), 0.062 µM.
Consider `CCOc1cccc(C2(N3CCN(c4ncccn4)CC3)C3CC(C)CC32)c1` (stereo unspecified), for which, in series [3], the solubility amounted to 10000 µg/mL (≈ 26.4 mM). The same molecule yielded a concentration for half-maximal inhibition (IC50) in series [1] of 0.054 µM.
For the molecule `CCOc1cccc(C2(N3CCN(c4ncncn4)CC3)C3CC(C)CC32)c1` (stereo unspecified), in series [1], the half-inhibitory concentration (IC50) is 4.27 µM.
On the same count and under the same terms, in the case of `CCOc1cccc(C2(N3CCN(c4ccccc4N)CC3)C3CC(C)CC32)c1` (stereo unspecified) it was > 10 µM; in that of `CCOc1cccc(C2(N3CCN(c4cccnc4)CC3)C3CC(C)CC32)c1` (stereo unspecified), 0.892 µM; in that of `CCOc1cccc(C2(N3CCN(c4ccncc4)CC3)C3CC(C)CC32)c1` (stereo unspecified), > 10 µM.
Still for that read-out and setting: then `CCOc1cccc(C2(N3CCN(c4ccc(Cl)nn4)CC3)C3CC(C)CC32)c1` (stereo unspecified), with > 10 µM.
